Measured values taken from patent US4690937A, “Anti-hypertensive agents” (University of Miami, priority 1979, dated 1987).
Read-outs that look alike come from different tables or passages of the source. Residues, ends and D or L forms follow the SMILES beside them. *: point of attachment. Bz = O=C(c1ccccc1)*

Key:
ACE [1] = target: T1, ACE (Homo sapiens, UniProt P12821); conditions: previously disclosed compounds of copending applications, read-out: I50, cited from earlier work
T1 construct: same enzyme (human urinary ACE); from tissue; host or cells: human urine (purified as described by Ryan et al., Tissue and Cell 10, 555 (1978))

ACE [2] = conditions: disulfide formed on standing of aqueous solution; cited from earlier work
ACE [3] = target: T1, ACE; test: ACE activity assay in vitro (I50, hydrolysis of [3H]-Benzoyl-GlyHisLeu); format: biochemical
Method: These factors include the source of enzyme, its purity, the substrate used and its concentration, and the composition of the assay buffer. All I50 data reported herein have been performed with the same assay system and same enzyme (human urinary ACE) and with an approximately 1/2 Km level of substrate and are therefore internaly consistent.
To initiate the assay, 40 μl of enzyme and 10 μl of water or inhibitor dissolved in water were preincubated for five minutes at 37° C. […] To terminate the reaction, 1 ml of 0.1M HCl was added, following which 1 ml of ethyl acetate was added. The mixture was agitated on a rotary mixer and centrifuged briefly to separate the phases.
An aliquot, 500μl, of the ethyl acetate layer was transferred to a liquid scintillation vial containing 10 ml of Riafluor, trademark New England Nuclear Corporation, Boston, Mass. For determination of I50 values, enzyme activity in the presence of inhibitor at a series of different concentrations was compared to activity in the absence of inhibitor.

[4] = tested on: mean arterial blood pressure response to angiotensin I; test: Oral effectiveness: blood pressure response to angiotensin I in anesthetized rats; format: in vivo; conditions: rat, oral 20 μmol/kg, -5 min (pre-dose control, 25 mm Hg)
Method: (§1) Rats (210-290 g body weight) were fasted overnight and then anesthetized with intraperitoneal pentobarbital, 50-60 mg/kg. Tracheostomy was performed and the animals were ventilated mechanically. A cannula was inserted into a femoral vein for injection of angiotensin I, and a second cannula was inserted into a common carotid artery for direct measurement of arterial blood pressure. Heparin, 1,000 units, was injected via the femoral vein to prevent coagulation. Blood pressure was measured with a pressure transducer connected to a polygraph. The rats were injected with […] of angiotensin I in 20μl of 0.9 g % NaCl; an amount of angiotensin I sufficient to raise mean arterial blood pressure by 25 mm Hg. After the responsiveness of a given rat to angiotensin I was established, the named compound at 20 μmol/kg (drug dissolved in 0.15 ml of H2 O plus 10μl of 1 N NaHCO3), was given via a stomach tube. At timed intervals, the effects of 400 ng/kg of angiotensin I on mean arterial blood pressure were tested.

[5] = tested on: mean arterial blood pressure response to angiotensin I; test: Intravenous effectiveness: blood pressure response to angiotensin I in anesthetized rats; format: in vivo; conditions: rat, in words
Method: as §1, with “tested. Results are shown below:” for “tested.”
Anesthetized rats were prepared as described in Example 18. The named compound was administered intravenously via a femoral vein, at the stated dose, in 15 μl of 0.01 N sodium bicarbonate. […] The time required for recovery of one half the lost responsiveness to angiotensin I, following injection of the named compound, is designated t1/2. […]

T1 sequence (P12821 30-1232 limits assumed): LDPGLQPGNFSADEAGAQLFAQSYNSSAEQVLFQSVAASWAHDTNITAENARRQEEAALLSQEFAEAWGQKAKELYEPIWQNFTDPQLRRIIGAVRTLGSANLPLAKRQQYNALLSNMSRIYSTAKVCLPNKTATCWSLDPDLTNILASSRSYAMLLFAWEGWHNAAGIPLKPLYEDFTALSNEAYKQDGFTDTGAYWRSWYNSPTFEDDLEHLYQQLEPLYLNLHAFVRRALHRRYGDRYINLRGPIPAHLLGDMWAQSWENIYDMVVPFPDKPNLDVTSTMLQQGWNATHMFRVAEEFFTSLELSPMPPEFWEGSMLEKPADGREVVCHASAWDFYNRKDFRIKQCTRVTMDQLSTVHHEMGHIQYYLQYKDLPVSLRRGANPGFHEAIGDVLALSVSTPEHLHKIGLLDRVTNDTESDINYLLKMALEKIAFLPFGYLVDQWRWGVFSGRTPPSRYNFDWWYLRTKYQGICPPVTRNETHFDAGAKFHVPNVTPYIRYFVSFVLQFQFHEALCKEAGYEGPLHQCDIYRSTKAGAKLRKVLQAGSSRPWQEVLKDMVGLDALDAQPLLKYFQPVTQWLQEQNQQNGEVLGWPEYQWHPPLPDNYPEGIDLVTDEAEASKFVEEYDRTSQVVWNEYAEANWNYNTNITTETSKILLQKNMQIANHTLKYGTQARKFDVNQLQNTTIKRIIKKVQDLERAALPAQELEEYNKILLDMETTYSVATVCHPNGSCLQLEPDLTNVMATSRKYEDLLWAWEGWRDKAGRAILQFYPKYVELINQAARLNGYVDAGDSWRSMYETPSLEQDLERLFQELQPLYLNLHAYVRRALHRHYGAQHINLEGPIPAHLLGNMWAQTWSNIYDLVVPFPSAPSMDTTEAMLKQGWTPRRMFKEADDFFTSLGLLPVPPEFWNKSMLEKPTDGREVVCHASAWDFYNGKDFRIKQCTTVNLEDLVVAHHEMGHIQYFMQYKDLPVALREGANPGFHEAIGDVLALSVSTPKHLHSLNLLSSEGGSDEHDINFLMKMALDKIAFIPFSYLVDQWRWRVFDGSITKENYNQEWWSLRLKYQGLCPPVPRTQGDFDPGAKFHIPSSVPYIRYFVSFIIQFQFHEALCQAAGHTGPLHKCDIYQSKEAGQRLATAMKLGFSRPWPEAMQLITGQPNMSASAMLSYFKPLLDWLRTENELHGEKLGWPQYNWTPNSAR

## O=C(N[C@@H](Cc1ccccc1)C(=O)SCCC(=O)N1CCC[C@H]1C(=O)O)c1ccccc1
ACE [1]; approximate
  IC50: ~700 nM

## C[C@H](CSSC[C@@H](C)C(=O)N1CCC[C@H]1C(=O)O)C(=O)N1CCC[C@H]1C(=O)O [disulfide]
ACE [2]
  ACE inhibition by the disulfide dimer: largely inactive as an inhibitor

## CC(SC(=O)[C@H](Cc1ccccc1)NC(=O)c1ccccc1)C(=O)N1CC=C[C@H]1C(=O)O (stereo partly drawn) [N-(2-benzoylphenylalanylthiopropanoyl)-L-3,4-dehydroproline]
ACE [1]; for racemic compound
  IC50: 3 nM

## CC(C)C[C@H](NC(=O)[C@H](Cc1cnc[nH]1)NC(=O)CNC(=O)c1ccccc1)C(=O)O [Benzoyl-GlyHisLeu, reference compound] (Bz-Gly-His-Leu-OH)
ACE [3]; substrate Benzoyl-GlyHisLeu, 0.05M Hepes pH 8.0, 0.1M NaCl, 0.75M Na2 SO4
  Km: ~200 µM

## C[C@H](CSC(=O)[C@H](Cc1c[nH]c2ccccc12)NC(=O)c1ccccc1)C(=O)N1CCC[C@H]1C(=O)O [N^α -[3-(Nα-benzoyl-L-tryptophylthio)-2-D-methylpropanoyl]-L-proline]
ACE [3]; ACE purified from human urine, pH 8.0, 37° C., Benzoyl-GlyHisLeu 1×10^-4 M
  IC50: 9.4 nM
[4]
  Blood Pressure Response to 400 ng/kg of Angiotensin I: 100 % of Control
[5]
  Response to intravenous administration (responsiveness to Angiotensin I, 400 ng/kg): rapid decrease in responsiveness to Angiotensin I, 400 ng/kg, followed by a gradual recovery to the pretreatment level of responsiveness
